Results from ChEMBL document CHEMBL1201862, “PubChem BioAssay data set” (2004).
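Dose response: 5 concentrations. Exposure: 48 h. Format: 96-well plates. Endpoint: linear interpolation; highest concentration if not reached. GI50 = concentration required for 50% inhibition of growth.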 Active and inactive are the calls of the source. No stated cut-off is given here; in the data, active = GI50 up to about 1.1 µM and inactive = higher.

Columns and labels:
Assay in all cases: NCI-60 cell line screen, 48 h
PC-3 = system: PC-3
HCT-116 = system: HCT-116
CCRF-CEM = system: CCRF-CEM
SK-MEL-28 = system: SK-MEL-28
DU-145 = system: DU-145
SR = system: SR
SW-620 = system: SW-620
MDA-MB-435 = system: MDA-MB-435
OVCAR-5 = system: OVCAR-5
UO-31 = system: UO-31
OVCAR-8 = system: OVCAR-8
NCI/ADR-RES = system: NCI/ADR-RES
HCT-15 = system: HCT-15
A549 = system: A549
SK-MEL-5 = system: SK-MEL-5
HOP-92 = system: HOP-92
Hs-578T = system: Hs-578T
SF-268 = system: SF-268
SNB-75 = system: SNB-75
NCI-H226 = system: NCI-H226

Compound	GI50 (PC-3)	GI50 (HCT-116)	GI50 (CCRF-CEM)	GI50 (SK-MEL-28)	GI50 (DU-145)	GI50 (SR)	GI50 (SW-620)	GI50 (MDA-MB-435)	GI50 (OVCAR-5)	GI50 (UO-31)	GI50 (OVCAR-8)	GI50 (NCI/ADR-RES)	GI50 (HCT-15)	GI50 (A549)	GI50 (SK-MEL-5)	GI50 (HOP-92)	GI50 (Hs-578T)	GI50 (SF-268)	GI50 (SNB-75)	GI50 (NCI-H226)
c1ccc(CSP234N5CCN2CCN3CCN4CC5)c(CSP234N5CCN2CCN3CCN4CC5)c1	> 100 µM (inactive)	> 100 µM (inactive)	45.4 µM (inactive)	> 100 µM (inactive)	> 100 µM (inactive)	30.8 µM (inactive)	> 100 µM (inactive)	> 100 µM (inactive)	> 100 µM (inactive)	81.1 µM (inactive)	> 100 µM (inactive)	> 100 µM (inactive)	> 100 µM	> 100 µM (inactive)	55 µM (inactive)	46.2 µM (inactive)	80.2 µM (inactive)	> 100 µM (inactive)	28.3 µM (inactive)	–
CCc1nn(CN2CCN(C)CC2)c(=S)n1/N=C\c1ccc(-c2ccc([N+](=O)[O-])cc2)o1	54.3 µM (inactive)	58.5 µM (inactive)	22.5 µM (inactive)	–	50.2 µM (inactive)	64.1 µM (inactive)	–	66.1 µM (inactive)	> 100 µM (inactive)	56.6 µM (inactive)	35.5 µM (inactive)	25.9 µM (inactive)	61.9 µM	36.2 µM (inactive)	40.5 µM (inactive)	30.4 µM (inactive)	56.9 µM (inactive)	37.8 µM (inactive)	–	22.7 µM (inactive)
CC1=CC(C)(C)Nc2ccc(CSc3ccccc3)cc21	28.9 µM (inactive)	26.4 µM (inactive)	–	37.8 µM (inactive)	22.8 µM (inactive)	–	23 µM (inactive)	25.3 µM (inactive)	14.9 µM (inactive)	22.1 µM (inactive)	46.2 µM (inactive)	41.9 µM (inactive)	30.9 µM	21.1 µM (inactive)	17.1 µM (inactive)	34.8 µM (inactive)	38.3 µM (inactive)	35.3 µM (inactive)	24.7 µM (inactive)	48.4 µM (inactive)
O=C1c2ccccc2C(O)(O)C1(O)C1(O)C(=O)c2ccccc2C1(O)O (stereo not drawn)	> 100 µM (inactive)	23.6 µM (inactive)	16.9 µM (inactive)	> 100 µM (inactive)	57.3 µM (inactive)	–	35.3 µM (inactive)	16.6 µM (inactive)	65.2 µM (inactive)	19.6 µM (inactive)	35.9 µM (inactive)	69.7 µM (inactive)	21.8 µM	30.1 µM (inactive)	20.1 µM (inactive)	37.6 µM (inactive)	> 100 µM (inactive)	> 100 µM (inactive)	15.6 µM (inactive)	> 100 µM (inactive)
